We go through 8 compounds from ChEMBL document CHEMBL1152687, “Synthesis and biological evaluation of the metabolites of 2-(1-{3-[(6-chloronaphthalen-2-yl)sulfonyl]propanoyl}piperidin-4-yl)-5-methyl-1,2-dihydro-3H-imidazo[1,5-c]imidazol-3-one” (Bioorg Med Chem, 2009).

One data set deals with Coagulation factor X (Homo sapiens, UniProt P00742). The experiment in a line: Inhibition of human factor 10a by para-nitroanilide release assay.
The nature of data set [1]: Plasma concentration in cynomolgus monkey at 1 mg/kg, po after 1 hr. The data set is classed as ADME, organism-based, Macaca fascicularis. More on the design: dose 1 mg/kg, route oral.
Data set [2] can be described thus: Plasma concentration in cynomolgus monkey at 1 mg/kg, po after 2 hrs. The data set is classed as ADME, organism-based, Macaca fascicularis. More on the design: dose 1 mg/kg, route oral.
Data set [3] is described as follows: Plasma concentration in cynomolgus monkey at 1 mg/kg, po after 4 hrs. The class given is ADME, organism-based, Macaca fascicularis. More on the design: dose 1 mg/kg, route oral.
Data set [4] in a line: Plasma concentration in cynomolgus monkey at 1 mg/kg, po after 10 hrs. The class given is ADME, organism-based, Macaca fascicularis. More on the design: dose 1 mg/kg, route oral.
A short description of data set [5]: AUC (0 to 10 hrs) in cynomolgus monkey at 1 mg/kg, po. The data set is classed as ADME, organism-based, Macaca fascicularis. More on the design: time < 10 hr, dose 1 mg/kg, route oral. The conditions noted are these: plasma.
Data set [6] can be described thus: Mean residence time in cynomolgus monkey at 1 mg/kg, po. The class given is ADME, organism-based, Macaca fascicularis. More on the design: dose 1 mg/kg, route oral. The settings on record: in vivo.
Data set [7] can be described thus: Oral bioavailability in cynomolgus monkey at 1 mg/kg, po. The data set is classed as ADME, organism-based, Macaca fascicularis. The conditions noted are these: in vivo.
The next data set deals with Prothrombin (Homo sapiens, UniProt P00734). Description: Inhibition of human thrombin by para-nitroanilide release assay.
For a further data set, the target named is Plasminogen (Homo sapiens, UniProt P00747). The experiment in a line: Inhibition of human plasmin by para-nitroanilide release assay.
Chain of Plasminogen (P00747 97-580 limits assumed): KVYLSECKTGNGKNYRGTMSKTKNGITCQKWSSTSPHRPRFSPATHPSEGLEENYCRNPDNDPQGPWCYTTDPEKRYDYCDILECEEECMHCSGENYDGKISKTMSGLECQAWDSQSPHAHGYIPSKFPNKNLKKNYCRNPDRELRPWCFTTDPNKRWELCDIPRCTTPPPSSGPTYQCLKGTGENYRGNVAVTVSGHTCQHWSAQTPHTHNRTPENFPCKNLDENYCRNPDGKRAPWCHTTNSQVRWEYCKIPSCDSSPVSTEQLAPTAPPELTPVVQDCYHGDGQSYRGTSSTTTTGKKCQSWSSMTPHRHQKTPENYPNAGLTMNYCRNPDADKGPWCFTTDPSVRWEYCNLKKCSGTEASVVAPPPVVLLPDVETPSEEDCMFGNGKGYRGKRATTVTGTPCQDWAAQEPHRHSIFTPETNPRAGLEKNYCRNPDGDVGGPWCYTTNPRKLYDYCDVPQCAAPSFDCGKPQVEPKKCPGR
Chain of Plasminogen (P00747 581-810 limits assumed): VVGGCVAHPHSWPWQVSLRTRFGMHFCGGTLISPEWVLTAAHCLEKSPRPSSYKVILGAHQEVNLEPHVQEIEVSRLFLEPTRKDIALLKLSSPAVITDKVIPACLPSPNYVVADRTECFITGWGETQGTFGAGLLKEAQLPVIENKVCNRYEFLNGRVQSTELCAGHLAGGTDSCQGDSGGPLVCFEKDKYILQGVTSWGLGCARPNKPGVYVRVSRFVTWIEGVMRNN
The next data set has as its target Trypsin (Homo sapiens, UniProt P07477+P07478+P35030). Description: Inhibition of human trypsin by para-nitroanilide release assay. The class given is protein assay.
The target in data set [8] is Tissue-type plasminogen activator (Homo sapiens, UniProt P00750). Description: Inhibition of human tissue plasminogen activator by para-nitroanilide release assay.
Chain of Tissue-type plasminogen activator (P00750 whole entry): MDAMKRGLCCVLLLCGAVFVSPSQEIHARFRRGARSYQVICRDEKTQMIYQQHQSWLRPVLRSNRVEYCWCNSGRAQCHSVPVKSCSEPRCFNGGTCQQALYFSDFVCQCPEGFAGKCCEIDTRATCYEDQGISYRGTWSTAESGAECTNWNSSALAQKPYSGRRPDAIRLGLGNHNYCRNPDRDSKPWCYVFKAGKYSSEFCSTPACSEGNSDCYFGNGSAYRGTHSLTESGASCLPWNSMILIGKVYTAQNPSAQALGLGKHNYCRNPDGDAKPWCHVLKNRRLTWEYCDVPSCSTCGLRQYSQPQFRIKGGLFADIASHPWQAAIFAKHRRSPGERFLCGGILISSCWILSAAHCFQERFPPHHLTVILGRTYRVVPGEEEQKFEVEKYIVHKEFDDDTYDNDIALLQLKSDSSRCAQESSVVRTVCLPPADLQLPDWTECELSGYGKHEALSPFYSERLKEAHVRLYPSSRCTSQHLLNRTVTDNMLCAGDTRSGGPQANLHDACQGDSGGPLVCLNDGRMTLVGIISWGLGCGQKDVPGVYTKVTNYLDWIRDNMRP
A short description of data set [9]: Volume of distribution at steady state in cynomolgus monkey at 0.1 mg/kg, iv. The class given is ADME, organism-based, Macaca fascicularis. More on the design: dose 0.1 mg/kg, route intravenous. The conditions noted are these: in vivo, read-out: Vdss.
Data set [10] is described as follows: Total clearance in cynomolgus monkey at 0.1 mg/kg, iv. The class given is ADME, organism-based, Macaca fascicularis. More on the design: dose 0.1 mg/kg, route intravenous. The conditions noted are these: in vivo.
The nature of data set [11]: Cmax in cynomolgus monkey at 1 mg/kg, po. More on the design: dose 1 mg/kg, route oral. The class given is ADME, organism-based, Macaca fascicularis. The settings on record: in vivo.
A short description of data set [12]: AUC in cynomolgus monkey at 1 mg/kg, po. The data set is classed as ADME, organism-based, Macaca fascicularis. More on the design: dose 1 mg/kg, route oral. The settings on record: plasma.

Chain of Coagulation factor X (P00742 41-179 limits assumed): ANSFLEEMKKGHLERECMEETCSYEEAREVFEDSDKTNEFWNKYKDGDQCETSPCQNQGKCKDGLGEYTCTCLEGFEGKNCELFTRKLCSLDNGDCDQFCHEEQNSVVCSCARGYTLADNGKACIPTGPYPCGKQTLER
Chain of Coagulation factor X (P00742 235-488 limits assumed): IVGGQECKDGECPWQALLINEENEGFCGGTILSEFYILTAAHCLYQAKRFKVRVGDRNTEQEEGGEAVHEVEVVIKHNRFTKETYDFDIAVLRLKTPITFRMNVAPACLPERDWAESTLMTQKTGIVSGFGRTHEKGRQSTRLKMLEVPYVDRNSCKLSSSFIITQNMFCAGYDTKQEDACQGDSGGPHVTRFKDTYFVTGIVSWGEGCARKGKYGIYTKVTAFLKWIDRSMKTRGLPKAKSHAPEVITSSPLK

With `O=S(O)c1ccc2cc(Cl)ccc2c1`, the IC50 on Coagulation factor X was over 5 µM.

`Cc1ncc2n1C(=O)N(C1CCN(C(=O)CCS(=O)(=O)c3ccc4cc(Cl)ccc4c3)CC1)C2` gave a concentration at 1 h in data set [1] of 92.8 ng/mL. Moreover, the concentration at 2 h in data set [2] was 132 ng/mL. The concentration at 4 h in data set [3] came out at 65.9 ng/mL. Also, the concentration at 10 h in data set [4] was 9.9 ng/mL. Moreover, the AUC(0-t) at 10 h in [5] is 583 ng·h/mL.

For `NC1CCN(C(=O)CCS(=O)(=O)c2ccc3cc(Cl)ccc3c2)CC1`, at Coagulation factor X, the IC50 is over 5 µM.

In data set [1], `Cc1ncc2n1C(=O)N(C1CCN(C(=O)[C@@H](O)CS(=O)(=O)c3ccc4cc(Cl)ccc4c3)CC1)C2` came in with a concentration at 1 h of 0.8 ng/mL. The concentration at 2 h in data set [2] worked out at 4.4 ng/mL. Further, the concentration at 4 h in data set [3] was 91 ng/mL. In data set [4], this compound yielded a concentration at 10 h of 3.6 ng/mL. In [5], this compound came in with an AUC(0-t) at 10 h of 54.6 ng·h/mL.

`Cc1ncc2n1C(=O)N(C1CCN(C(=O)[C@H](O)CS(=O)(=O)c3ccc4cc(Cl)ccc4c3)CC1)C2`: the MRT in [6] turned out to be 7.05 h. Moreover, the bioavailability in [7] stood at 25.4%. Also, the Ki at Prothrombin is 1.9 µM; on Plasminogen, over 60 µM; at Trypsin, over 60 µM; in [8], over 60 µM. This compound yielded a concentration at 1 h in [1] of 2.7 ng/mL. The same compound yielded a concentration at 2 h in [2] of 6.8 ng/mL. Besides, the concentration at 4 h in [3] worked out at 6.5 ng/mL. This compound also displayed a concentration at 10 h in data set [4] of 1.8 ng/mL. In data set [5], this compound displayed an AUC(0-t) at 10 h of 44.2 ng·h/mL. The Vd in data set [9] worked out at 0.719 L/kg. The compound also showed a clearance in data set [10] of 14.2 mL/min/kg. The compound also gave a Cmax in [11] of 30.5 ng/mL. The compound also came in with an AUC in data set [12] of 307 ng·h/mL.

In the case of `O=C(CCS(=O)(=O)c1ccc2cc(Cl)ccc2c1)N1CCC(N2Cc3cnc(CO)n3C2=O)CC1`, in [6], the MRT worked out at 7.56 h. For the same compound, the bioavailability in [7] turned out to be 32.3%. The Ki is 7.8 µM at Prothrombin, over 60 µM at Plasminogen, over 60 µM at Trypsin and over 60 µM in [8]. The same compound showed a concentration at 1 h in data set [1] of 16.6 ng/mL. In [2], this compound had a concentration at 2 h of 25 ng/mL. In data set [3], this compound gave a concentration at 4 h of 13.3 ng/mL. For the same compound, the AUC(0-t) at 10 h in data set [5] worked out at 107 ng·h/mL. The Vd in data set [9] turned out to be 0.588 L/kg. Moreover, in data set [10], the clearance was 11.9 mL/min/kg. Further, in [11], the peak level (Cmax) was 60.1 ng/mL. In data set [12], this compound had an AUC of 470 ng·h/mL.

Compound `Cc1ncc2n1C(=O)N(C1CCN(C(=O)C(=O)CS(=O)(=O)c3ccc4cc(Cl)ccc4c3)CC1)C2` registered a 50% inhibitory concentration (IC50) on Coagulation factor X of 0.93 µM.

`O=C(O)CCS(=O)(=O)c1ccc2cc(Cl)ccc2c1` had an IC50 against Coagulation factor X of over 5 µM.

As a reminder, the IC50 is the point on the concentration scale where inhibition reaches its midpoint. As a reminder, the AUC(0-t) is the area under the concentration-time curve up to a stated or last time point. The term MRT denotes a mean duration of stay, worked out from the concentration-time curve. Broadly, the bioavailability is the share of a dose that reaches the circulation, judged against a reference dose that is usually intravenous. As usually defined, the Ki is a measure of affinity in units of concentration, obtained from inhibition or displacement. Usually clearance stands for the rate of elimination divided by the concentration. The Cmax is the highest concentration seen after dosing. A word on the AUC: it is concentration integrated over time.
